{"source": "patent US20080206332A1", "about": "“SUSTAINED RELEASE ORAL DOSAGE FORMS OF A PRODRUG OF R-BACLOFEN AND METHODS OF TREATMENT” (priority 2007, published 2008)", "key": {"[1]": {"assay": "Pharmacokinetics of R-baclofen in dogs after oral dosage forms of compound (1)", "parameters": "species or system Beagle dogs", "conditions": "dog, in vivo, iv, 10 mg-eq/kg R-baclofen administered intravenously", "method": "The dogs were fasted overnight before the study and for 4 hours post-dosing. Blood samples (1 mL) were obtained via the femoral vein at intervals over 24 hours after oral dosing. Blood was quenched immediately using acetonitrile with 1% formic acid and then frozen at −20° C. until analyzed.\nThe concentration of R-baclofen in quenched whole blood was determined using an API 2000 LC/MS/MS instrument equipped with a Shimadzu binary pump and a Leap CTC autosampler. A Phenomenex Hydro-RP 4.6×50 mm column operating at room temperature was used. The mobile phases were (A) water with 0.1% formic acid, and (B) acetonitrile with 0.1% formic acid. The gradient condition was: 5% B for 0.5 min, then to 95% B in 1.8 min; then maintained at 95% B for 1.2 min. The mobile phase was then returned to 5% B for 2 min. A TurbolonSpray source was used on the API 2000. The analysis was done in positive ion mode and an MRM transition of m/z 214/151 was used in the analysis of R-baclofen. Ten (10) μL of the blood sample was injected. The peaks were integrated using Analyst™ Software ([…]) to provide the concentration of R-baclofen in the blood sample.\nPharmacokinetic profiles of sustained release oral dosage forms prepared according to Examples 1-4 at a dose of 10 mg compound (1) following oral administration to dogs is shown in FIG. 5."}, "[2]": {"conditions": "2 mg t.i.d. R-baclofen equivalent to racemic baclofen 10 mg t.i.d.; cited from earlier work"}, "[3]": {"conditions": "in vivo; cited from earlier work"}, "[4]": {"conditions": "clinical trials (Castell et al.); cited from earlier work"}, "[5]": {"conditions": "dosed either orally or directly into the colon of a mammal; cited from earlier work"}}}
{"smiles": "NC[C@H](CC(=O)O)c1ccc(Cl)cc1", "note": "[R-baclofen, R-(−)-baclofen]", "values": [{"measurement": "AUC(0-inf)", "setting": "[1]", "result": 1980, "unit": "ng·h/mL"}, {"measurement": "potency of orally administered R-baclofen relative to orally administered racemic baclofen", "setting": "[2]", "result": "about 5 times"}]}
{"smiles": "NCC(CC(=O)O)c1ccc(Cl)cc1", "note": "(racemic) [baclofen, (±)-4-Amino-3-(4-chlorophenyl)butanoic acid]", "values": [{"measurement": "elimination half-life", "setting": "[3]", "result": "3 to 4", "unit": "h"}]}
{"smiles": "CC(C)C(=O)O[C@@H](OC(=O)NC[C@H](CC(=O)O)c1ccc(Cl)cc1)C(C)C", "note": "[Compound (1), (3R)-4-{[(1S)-2-methyl-1-(2-methylpropanoyloxy)propoxy]carbonylamino}-3-(4-chlorophenyl)butanoic acid]", "values": [{"measurement": "reflux episodes in clinical trials", "setting": "[4]", "result": "reduce reflux episodes"}, {"measurement": "bioavailability as R-baclofen", "setting": "[5]", "result": "high bioavailability"}]}
